Consider 13 compounds from US4820834A, “Benzodiazepine analogs” (priority 1987, dated 1989).

The target of test [1] is T1, CCK receptor (brain, cerebral cortex) (Cavia porcellus, UniProt H0VZC5).
T1 construct: Cerebral cortex was dissected and used as a receptor source; from tissue; host or cells: guinea pig cerebral cortex membranes (male Hartley)
T1 sequence (H0VZC5 1-426): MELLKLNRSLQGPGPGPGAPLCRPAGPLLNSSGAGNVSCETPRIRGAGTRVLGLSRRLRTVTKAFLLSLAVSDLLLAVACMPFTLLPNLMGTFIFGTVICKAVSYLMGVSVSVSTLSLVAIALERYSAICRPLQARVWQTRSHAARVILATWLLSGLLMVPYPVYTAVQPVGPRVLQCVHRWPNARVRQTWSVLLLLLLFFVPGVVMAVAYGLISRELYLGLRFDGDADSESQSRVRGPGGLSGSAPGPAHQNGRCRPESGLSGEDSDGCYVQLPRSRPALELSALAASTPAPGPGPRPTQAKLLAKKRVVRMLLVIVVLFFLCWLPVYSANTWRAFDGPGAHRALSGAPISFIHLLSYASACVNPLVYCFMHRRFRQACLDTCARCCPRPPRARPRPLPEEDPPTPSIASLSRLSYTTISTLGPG
The experiment in a line: biochemical. The test is classed as binding, Male Hartley guinea pigs. As to conditions: IC50 ^125 I-CCK Brain, guinea pig cerebral cortex, ^125 I-CCK-33, 25° C., 2 hours. The method, then:
2. CCK Recepto Binding (Brain)
CCK-33 was radiolabeled and the binding was Performed according to the description for the Pancreas method with modifications according to Saito et al., J. Neurochem.
Cerebral cortex was dissected and used as a receptor source. Each gram of fresh guinea pig brain tissue was homogenized in 10 ml of Tris/Trizma buffer with a Brinkman polytron PT-10. The homogenates were centrifuged at 42,000 g for 15 minutes. Pellets were resuspended in Tris Buffer, centrifuged as above and resuspended in 200 volumes of binding assay buffer (10 mM N-2-hydroxyethyl-piperazine-N'-2-ethane sulfonic acid (HEPES), 5 mM MgCl2, 0.25 mg/ml bacitracin, 1 mM ethylene glycol-bis-(β-aminoethylether-N,N'-tetraacetic acid) (EGTA), and 0.4% bovine serum albumin (BSA)). […] All assays were run in duplicate or triplicate. The reaction mixtures were incubated at 25° C. for 2 hours and centrifuged in a Beckman Microfuge (4 minutes) immediately after adding 1 ml of ice-cold incubation buffer. The supernatant was aspirated and discarded, pellets were counted with a Beckman gamma 5000.

For test [2], the target named is T2, Gastrin receptor (gastric glands) (Cavia porcellus, UniProt H0VZC5).
T2 construct: The washed guinea pig gastric glands prepared as above were resuspended; from tissue; host or cells: guinea pig gastric mucosal glands (male Hartley)
T2 sequence (H0VZC5 1-426): T1 sequence (H0VZC5 1-426)
As to the kind of experiment: Gastrin Receptor Binding in Guinea Pig Gastric Glands. Set-up: species or system guinea pig (male Hartley). As to conditions: IC50 ^125 I-Gastrin Gastric Glands, 25° C., 30 minutes.

For `O=C(NC1N=C(c2ccccc2)c2ccccc2NC1=O)c1ccc(F)cc1` (racemic) [Example 144, 1-3-Dihydro-3-(RS)-(4'-fluorobenzoylamino)-5-phenyl-2H-1,4-benzodiazeoin-2-one], the IC50 in test [1] was 43 µM; in test [2], 9.4 µM.

Regarding `O=C(NC1N=C(c2ccccc2)c2ccccc2NC1=O)c1ccc(C(F)(F)F)cc1` (racemic) [Example 145, 1,3-Dihydro-5-Phenyl-3-(RS)-(4'-trifluoromethylbenzoylamino)-2H-1,4-benzodiazepin-2-one], the values for the IC50 in test [1] and in test [2] were 65 µM and 36 µM, respectively.

In the case of `CC(C)(C)c1ccc(C(=O)NC2N=C(c3ccccc3)c3ccccc3NC2=O)cc1` (racemic) [Example 146, 1,3-Dihydro-3-(RS)-(4'-tert-butylbenzoylamino)-5-phenyl-2H-1,4-benzodiazepin-2-one], the IC50 stood at 100 µM in test [1] and 40 µM in test [2].

Consider `O=C(NC1N=C(c2ccccc2)c2ccccc2NC1=O)c1cc(Cl)cc(Cl)c1` (racemic) [Example 147, 3-(RS)-(3,5-Dichlorobenzoylamino)1,3-dihydro-5-phenyl-2H-1,4-benzodiazepin-2-one], for which the figures for the IC50 in test [1] and in test [2] were over 100 µM and 180 µM, respectively.

Regarding `O=C(NC1N=C(c2ccccc2)c2ccccc2NC1=O)c1ccc(O)cc1` (racemic) [Example 148, 1-3-Dihydro-3-(RS)-(p-Hydroxybenzoylamino)-5-phenyl-2H-1,4-benzodiazepin-2-one], the IC50 in test [1] is 100 µM; in test [2], 31 µM.

Turning to `CN(C)c1ccc(C(=O)NC2N=C(c3ccccc3F)c3ccccc3NC2=O)cc1` (racemic) [Example 152, 1,3-Dihydro-3(RS)-(p-dimethylaminobenzoylamino)-5-(2-fluorophenyl)-2H-1,4-benzodiazepin-2-one], the IC50 in test [1] and in test [2] was over 100 µM each time.

As to `COc1ccc(C(=O)NC2N=C(c3ccccc3F)c3ccccc3NC2=O)cc1OC` (racemic) [Example 153, 1,3-Dihydro-3(RS)-(3,4-dimethoxybenzoylamino)-5-(2-fluorophenyl)-2H-1,4-benzodiazepin-2-one], the IC50 in test [1] and in test [2] was over 40 µM in each case.

As for `O=C(NC1N=C(c2ccccc2)c2ccccc2NC1=O)c1cccc(SC(F)(F)F)c1` (racemic) [Example 155, 1,3-Dihydro-5-phenyl-3(RS)-(3-trifluoromethylthiobenzoylamino)-2H-1,4-benzodiazepin-2-one], the IC50 in test [1] was over 100 µM; in test [2] it was 128 µM.

Take `O=C(NC1N=C(c2ccccc2F)c2ccccc2NC1=O)c1ccc[nH]1` (racemic) [Example 158, 1,3-Dihydro-5-(2-fluorophenyl)-3(RS)-(pyrrole-2-carbonylamino)-2H-1,4-benzodiazepin-2-one]: the IC50 in test [1] was determined as 100 µM; in test [2], 25 µM.

Consider `O=C(NC1N=C(c2ccccc2)c2ccccc2NC1=O)c1ccc2ccccc2c1` (racemic) [Example 160, 1,3-Dihydro-3(RS)-(2-naphthoylamino)-5-phenyl-2H-1,4-benzodiazepin-2-one], for which the figures for the IC50 in test [1] and in test [2] were 12 µM and 14 µM, respectively.

For the compound `CCCc1ccc(C(=O)NC2N=C(c3ccccc3)c3ccccc3NC2=O)cc1` (racemic) [Example 163, 1,3-Dihydro-5-phenyl-3(RS)-(4-α-propylbenzoylamino)-2H-1,4-benzodiazepin-2-one], the results for the IC50 in test [1] and in test [2] were 12 µM and 80 µM, respectively.

As for `O=C(NC1N=C(c2ccccc2)c2ccccc2NC1=O)c1ccc(-c2ccccc2)cc1` (racemic) [Example 164, 1,3-Dihydro-5-phenyl-3(RS)-(4-phenylbenzoylamino)-2H-1,4-benzodiazepin-2-one], the IC50 in test [1] is 18 µM; in test [2], over 100 µM.

Turning to `CCCCCc1ccc(C(=O)NC2N=C(c3ccccc3)c3ccccc3NC2=O)cc1` (racemic) [Example 165, 1,3-Dihydro-3(RS)-(4-n-pentylbenzoylamino)-5-phenyl-2H-1,4-benzodiazepin-2-one], the IC50 in test [1] is 8 µM; in test [2], over 100 µM.
